Key:
KRAS WT = molecular target: T1, KRAS WT (Homo sapiens, UniProt P01116); experiment: HTRF assay, interaction of GST-tagged K-Ras with His-tagged hSOS1 (KRAS wildtype); format: biochemical; settings: <500 nM, read-out: Inhibition of KRAS WT (IC50)
T1 construct: made in house; host or cells: E. coli BL21 (DE3)
In short: (§1)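 GST-K-Ras (G12S or WT) with anti-GST-Eu donor mixed with His-hSOS1 and anti-6His-XL665 acceptor in ~5 mM HEPES pH 7.4, 150 mM NaCl, 1 mM DTT, 0.05% BSA, 0.0025% Igepal. After ~10 min or longer, HTRF 665/620 nm ratio read.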

KRAS G12S = molecular target: T2, KRAS G12S (Homo sapiens, UniProt P01116, G12S); experiment: HTRF assay, interaction of GST-tagged K-Ras with His-tagged hSOS1 (KRAS G12S); format: biochemical; settings: <500 nM, read-out: Inhibition of KRAS G12S (IC50)
T2 construct: made in house; host or cells: E. coli BL21 (DE3)
T2 sequence (P01116 1-188 isoform P01116-2 G12S): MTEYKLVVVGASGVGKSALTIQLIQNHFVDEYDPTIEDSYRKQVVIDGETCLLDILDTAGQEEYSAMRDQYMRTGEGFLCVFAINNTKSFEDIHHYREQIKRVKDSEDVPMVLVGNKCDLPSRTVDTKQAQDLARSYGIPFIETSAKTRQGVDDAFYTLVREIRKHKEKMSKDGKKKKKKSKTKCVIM
In short: as §1

T1 sequence (P01116 1-188 isoform P01116-2): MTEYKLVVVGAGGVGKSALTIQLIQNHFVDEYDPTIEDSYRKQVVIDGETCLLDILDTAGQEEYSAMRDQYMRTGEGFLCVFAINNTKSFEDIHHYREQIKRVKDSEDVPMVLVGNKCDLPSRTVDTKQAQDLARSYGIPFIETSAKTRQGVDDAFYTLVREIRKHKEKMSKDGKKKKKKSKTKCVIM

C[C@H](O)[C@H]1COc2c(Cl)c(-c3ccc(F)c4sc(N)c(C#N)c34)c(F)c3nc(OC[C@@]45CCCN4C[C@H](F)C5)nc(c23)N1CCN(C)C(=O)n1ccnc1 [Compound 449, N-(2-((5R)-9-(2-amino-3-cyano-7-fluorobenzo[b]thiophen-4-yl)-8-chloro-10-fluoro-2-(((2R,7aS)-2-fluorotetrahydro-1H-pyrrolizin-7a(5H)-yl)methoxy)-5-((S)-1-hydroxyethyl)-5,6-dihydro-4H-[1,4]oxazepino [5,6,7-de]quinazolin-4-yl)ethyl)-N-methyl-1H-imidazole-1-carboxamide]
IC50 (KRAS WT): < 500 nM | IC50 (KRAS G12S): < 500 nM

— patent US12606572B2, “Substituted heterocycles and uses thereof” (Kumquat Biosciences Inc., priority 2023, dated 2026)
